Assay results published in the NIST ThermoML archive (doi:10.1016/j.fluid.2016.11.012).
Several values for one entry are separate records, joined by “and”; a condition that tells them apart may be missing. Equal values may be shown once.

Tests used:
[1] = Crystal; for vapor or sublimation pressure: Closed cell (Static) method
[2] = Molar enthalpy of transition or fusion; conditions: Crystal; DSC
[3] = molar heat capacity at constant pressure; conditions: 100 kPa, DSC

C1=Cc2cccc3cccc1c23 [acenaphthylene]
[1]
Conditions | Normal melting temperature [°C] | vapor or sublimation pressure
296.95 K | – | 0.00087 kPa
296.97 K | – | 0.00086 kPa
296.98 K | – | 0.00088 kPa
302.22 K | – | 0.00147 kPa
302.23 K | – | 0.00148 kPa and 0.00147 kPa
307.47 K | – | 0.00244 kPa
307.48 K | – | 0.00247 kPa
307.49 K | – | 0.00243 kPa
312.71 K | – | 0.00399 kPa
312.72 K | – | 0.00399 kPa and 0.00397 kPa
317.89 K | – | 0.00629 kPa and 0.00628 kPa and 0.00632 kPa
323.06 K | – | 0.00986 kPa
323.07 K | – | 0.00984 kPa and 0.00986 kPa
328.2 K | – | 0.01511 kPa
328.21 K | – | 0.01516 kPa
328.22 K | – | 0.01513 kPa
333.33 K | – | 0.02281 kPa
333.34 K | – | 0.02286 kPa and 0.02282 kPa
338.45 K | – | 0.03393 kPa and 0.03392 kPa
343.49 K | – | 0.04954 kPa
343.5 K | – | 0.04955 kPa and 0.0496 kPa
348.54 K | – | 0.07154 kPa and 0.07156 kPa
353.54 K | – | 0.1018 kPa
353.55 K | – | 0.1017 kPa and 0.1018 kPa
358.56 K | – | 0.1434 kPa and 0.1435 kPa
361.06 K | – | 0.1694 kPa
361.07 K | – | 0.1693 kPa and 0.1695 kPa
363.54 K | – | 0.1995 kPa
363.55 K | – | 0.1996 kPa and 0.1994 kPa
DTA | 92.00 | –

Conditions | Molar enthalpy of transition or fusion [kcal/mol]
[2] | 2.8

[3]
Conditions | molar heat capacity at constant pressure
304.12 K, Crystal | 185.5 J/K/mol and 185.08 J/K/mol and 185.83 J/K/mol
306.11 K, Crystal | 186.74 J/K/mol and 186.41 J/K/mol and 186.24 J/K/mol
308.11 K, Crystal | 188.24 J/K/mol and 187.99 J/K/mol and 188.07 J/K/mol
310.11 K, Crystal | 188.57 J/K/mol and 188.99 J/K/mol and 188.74 J/K/mol
312.11 K, Crystal | 189.4 J/K/mol and 189.49 J/K/mol
314.11 K, Crystal | 190.82 J/K/mol and 190.32 J/K/mol
316.11 K, Crystal | 191.23 J/K/mol and 191.73 J/K/mol and 192.23 J/K/mol
318.11 K, Crystal | 192.31 J/K/mol and 192.65 J/K/mol and 192.15 J/K/mol
320.11 K, Crystal | 193.81 J/K/mol and 193.73 J/K/mol and 193.56 J/K/mol
322.11 K, Crystal | 195.06 J/K/mol and 195.47 J/K/mol
324.11 K, Crystal | 196.55 J/K/mol and 196.06 J/K/mol and 196.14 J/K/mol
326.11 K, Crystal | 196.97 J/K/mol and 197.8 J/K/mol and 196.8 J/K/mol
328.12 K, Crystal | 198.13 J/K/mol and 198.22 J/K/mol and 198.55 J/K/mol
330.12 K, Crystal | 200.13 J/K/mol and 198.88 J/K/mol and 199.8 J/K/mol
332.13 K, Crystal | 201.21 J/K/mol and 200.88 J/K/mol and 201.38 J/K/mol
369.13 K, Liquid | 247.86 J/K/mol and 248.77 J/K/mol and 247.19 J/K/mol
371.13 K, Liquid | 249.1 J/K/mol and 248.1 J/K/mol
373.13 K, Liquid | 251.1 J/K/mol and 250.68 J/K/mol and 249.52 J/K/mol
375.13 K, Liquid | 250.68 J/K/mol and 249.02 J/K/mol and 253.51 J/K/mol
377.13 K, Liquid | 254.17 J/K/mol and 251.51 J/K/mol and 250.68 J/K/mol
379.13 K, Liquid | 253.59 J/K/mol and 250.93 J/K/mol and 251.35 J/K/mol
381.13 K, Liquid | 253.92 J/K/mol and 251.01 J/K/mol and 252.18 J/K/mol
383.13 K, Liquid | 254.76 J/K/mol and 252.59 J/K/mol and 252.51 J/K/mol
385.13 K, Liquid | 255.92 J/K/mol and 253.59 J/K/mol and 253.01 J/K/mol
387.13 K, Liquid | 255.01 J/K/mol and 253.51 J/K/mol and 252.93 J/K/mol

c1ccc2c(c1)Cc1ccccc1-2 [fluorene]
[3], Crystal
Conditions | molar heat capacity at constant pressure
262.36 K | 171.44 J/K/mol
262.44 K | 171.61 J/K/mol
262.47 K | 171.61 J/K/mol
265 K | 173.52 J/K/mol and 173.36 J/K/mol
270 K | 176.77 J/K/mol and 176.68 J/K/mol
275 K | 180.01 J/K/mol and 179.93 J/K/mol and 180.09 J/K/mol
280 K | 183.33 J/K/mol and 183.25 J/K/mol
285 K | 186.49 J/K/mol and 186.41 J/K/mol and 186.33 J/K/mol
290 K | 189.65 J/K/mol and 189.49 J/K/mol and 189.4 J/K/mol
295 K | 192.9 J/K/mol and 192.81 J/K/mol and 192.73 J/K/mol
300 K | 196.47 J/K/mol and 196.31 J/K/mol
305 K | 201.38 J/K/mol and 201.21 J/K/mol
310 K | 208.11 J/K/mol and 208.2 J/K/mol and 207.95 J/K/mol
315 K | 216.18 J/K/mol and 216.34 J/K/mol and 216.09 J/K/mol
320 K | 223.33 J/K/mol and 223.66 J/K/mol and 223.41 J/K/mol
325 K | 227.9 J/K/mol and 228.32 J/K/mol
330 K | 231.81 J/K/mol and 232.39 J/K/mol and 232.31 J/K/mol
335 K | 236.96 J/K/mol and 237.3 J/K/mol and 237.21 J/K/mol
340 K | 242.04 J/K/mol and 241.87 J/K/mol
345 K | 246.77 J/K/mol and 246.61 J/K/mol
350 K | 251.85 J/K/mol and 251.76 J/K/mol and 251.68 J/K/mol
355 K | 257.25 J/K/mol and 257.17 J/K/mol and 257.08 J/K/mol
358.37 K | 261.08 J/K/mol
358.5 K | 261.32 J/K/mol and 261.24 J/K/mol
